According to patent publication US8906909B2 (Curis, Inc., priority 2009, dated 2014):

Columns and labels:
[1] = test system: HDACs (HeLa cell nuclear extracts); assay: HDAC enzymatic activity, Biomol Color de Lys system; type: biochemical
Method in brief: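 HeLa nuclear extract as HDAC source with Color de Lys substrate in 50 mM Tris/Cl pH 8.0, 137 mM NaCl, 2.7 mM KCl, 1 mM MgCl2. Serially diluted compounds reacted 1 h at 25 °C, then developer added; fluorescence (Ex 350–380/Em 440–460) fitted sigmoidally for IC50.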

IC50 [1] [nM] | melting point | SMILES
< 100 | 270 °C (dec.) | CN(Cc1cc2nc(-c3ccc4c(c3)CC(=O)N4)nc(N3CCOCC3)c2s1)c1ncc(C(=O)NO)cn1 [Compound 194, N-hydroxy-2-(methyl((4-morpholino-2-(2-oxoindolin-5-yl)thieno[3,2-d]pyrimidin-6-yl)methyl)amino)pyrimidine-5-carboxamide]
< 100 | 175 to 178 °C | COc1ccc(-c2nc(N3CCOCC3)c3sc(C(C)(C)N(C)c4ncc(C(=O)NO)cn4)cc3n2)cn1 [Compound 251, N-Hydroxy-2-((2-(2-(6-methoxypyridin-3-yl)-4-morpholinothieno[3,2-d]pyrimidin-6-yl)propan-2-yl)(methyl)amino)pyrimidine-5-carboxamide]
100 to 1000 | 131 to 134 °C | CS(=O)(=O)N1CCN(Cc2cc3nc(-c4cccc5[nH]ncc45)nc(N4CCN(CCCCCCC(=O)NO)CC4)c3s2)CC1 [Compound 32, 7-(4-(2-(1H-indazol-4-yl)-6-((4-(methylsulfonyl)piperazin-1-yl)methyl)thieno[3,2-d]pyrimidin-4-yl)piperazin-1-yl)-N-hydroxyheptanamide]
< 100 | 202 to 207 °C | COc1ncc(-c2nc(N3CCOCC3)c3sc(C(C)(C)Nc4ncc(C(=O)NO)cn4)cc3n2)cn1 [Compound 263, N-Hydroxy-2-(2-(2-(2-methoxypyrimidin-5-yl)-4-morpholinothieno[3,2-d]pyrimidin-6-yl)propan-2-ylamino)pyrimidine-5-carboxamide]
< 100 | 190 to 195 °C | CN(C)c1ccc(-c2nc(N3CCOCC3)c3sc(CN(C)c4ncc(C(=O)NO)cn4)cc3n2)cn1 [Compound 114, 2-(((2-(6-(dimethylamino)pyridin-3-yl)-4-morpholinothieno[3,2-d]pyrimidin-6-yl)methyl)(methyl)amino)-N-hydroxypyrimidine-5-carboxamide]
< 100 | 172 to 175 °C | CN(C)c1cccc(-c2nc(N3CCOCC3)c3sc(CN(C)c4ncc(C(=O)NO)cn4)cc3n2)c1 [Compound 108, 2-(((2-(3-(dimethylamino)phenyl)-4-morpholinothieno[3,2-d]pyrimidin-6-yl)methyl)(methyl)amino)-N-hydroxypyrimidine-5-carboxamide]
< 100 | 145 to 147 °C | O=C(CCCCNCc1cc2nc(-c3cccc4[nH]ncc34)nc(N3CCOCC3)c2s1)NO [Compound 42, 5-((2-(1H-indazol-4-yl)-4-morpholinothieno[3,2-d]pyrimidin-6-yl)methylamino)-N-hydroxypentanamide]
1000 to 10000 | 188 to 190 °C | CN(Cc1cc2nc(-c3cccc4[nH]ncc34)nc(N3CCOCC3)c2s1)c1ccc(/C=C/C(=O)NO)cc1 [Compound 81, (E)-3-(4-(((2-(1H-indazol-4-yl)-4-morpholinothieno[3,2-d]pyrimidin-6-yl)methyl)(methyl)amino)phenyl)-N-hydroxyacrylamide]
< 100 | 170 to 172 °C | O=C(NO)c1cnc(N2CCC(CNCc3cc4nc(-c5cccc6[nH]ncc56)nc(N5CCOCC5)c4s3)CC2)nc1 [Compound 15, 2-(4-(((2-(1H-indazol-4-yl)-4-morpholinothieno[3,2-d]pyrimidin-6-yl)methylamino)methyl)piperidin-1-yl)-N-hydroxypyrimidine-5-carboxamide]

More lines, now with the values behind:

SMILES | IC50 [1] [nM] | melting point
Nc1ccc(-c2nc(N3CCOCC3)c3sc(S(=O)(=O)Nc4ncc(C(=O)NO)cn4)cc3n2)cc1 [Compound 271, 2-[2-(4-Amino-phenyl)-4-morpholin-4-yl-thieno[3,2-d]pyrimidine-6-sulfonylamino]-pyrimidine-5-carboxylic acid hydroxyamide] | < 100 | 197 to 205 °C
CN(C)CCOc1ccc(-c2nc(N3CCOCC3)c3sc(CN(C)c4ncc(C(=O)NO)cn4)cc3n2)cn1 [Compound 257, 2-(((2-(6-(2-(Dimethylamino)ethoxy)pyridin-3-yl)-4-morpholinothieno[3,2-d]pyrimidin-6-yl)methyl)(methyl)amino)-N-hydroxypyrimidine-5-carboxamide] | < 100 | 140 to 143 °C
O=C(NO)c1cnc(N2CCN(Cc3cc4nc(-c5cccc6[nH]ncc56)nc(N5CCOCC5)c4s3)CC2)nc1 [Compound 14, 2-(4-((2-(1H-indazol-4-yl)-4-morpholinothieno[3,2-d]pyrimidin-6-yl)methyl)piperazin-1-yl)-N-hydroxypyrimidine-5-carboxamide] | < 100 | 209 to 221 °C
CN(Cc1cc2nc(-c3ccc(O)cc3)nc(N3CCOCC3)c2s1)c1ncc(C(=O)NO)cn1 [Compound 133, N-hydroxy-2-(((2-(4-hydroxyphenyl)-4-morpholinothieno[3,2-d]pyrimidin-6-yl)methyl)(methyl)amino)pyrimidine-5-carboxamide] | < 100 | 185 to 195 °C
CN(Cc1cc2nc(-c3ccc4[nH]cnc4c3)nc(N3CCOCC3)c2s1)c1ncc(C(=O)NO)cn1 [Compound 187, 2-(((2-(1H-benzo[d]imidazol-5-yl)-4-morpholinothieno[3,2-d]pyrimidin-6-yl)methyl)(methyl)amino)-N-hydroxypyrimidine-5-carboxamide] | < 100 | 231 to 239 °C
CNc1ncc(-c2nc(N3CCOCC3)c3sc(NCCCCC(=O)NO)cc3n2)cn1 [Compound 227, N-Hydroxy-5-(2-(2-(methylamino)pyrimidin-5-yl)-4-morpholinothieno[3,2-d]pyrimidin-6-ylamino)pentanamide] | < 100 | 206 to 210 °C
CS(=O)(=O)N1CCN(Cc2cc3nc(-c4cccc5[nH]ncc45)nc(N4CCN(CCCCC(=O)NO)CC4)c3s2)CC1 [Compound 30, 5-(4-(2-(1H-indazol-4-yl)-6-((4-(methylsulfonyl)piperazin-1-yl)methyl)thieno[3,2-d]pyrimidin-4-yl)piperazin-1-yl)-N-hydroxypentanamide] | 100 to 1000 | 142 to 145 °C
CN(Cc1cc2nc(-c3ccc(CO)cc3)nc(N3CCOCC3)c2s1)c1ncc(C(=O)NO)cn1 [Compound 140, N-hydroxy-2-(((2-(4-(hydroxymethyl)phenyl)-4-morpholinothieno[3,2-d]pyrimidin-6-yl)methyl)(methyl)amino)pyrimidine-5-carboxamide] | < 100 | 218 to 223 °C
CN(Cc1cc2nc(-c3ccc(N)c(C#N)c3)nc(N3CCOCC3)c2s1)c1ncc(C(=O)NO)cn1 [Compound 280, 2-(((2-(4-Amino-3-cyanophenyl)-4-morpholinothieno[3,2-d]pyrimidin-6-yl)methyl)(methyl)amino)-N-hydroxypyrimidine-5-carboxamide] | < 100 | 237 to 240 °C
CCN(CC)c1ccc(-c2nc(N3CCOCC3)c3sc(CN(C)c4ncc(C(=O)NO)cn4)cc3n2)cc1 [Compound 154, 2-(((2-(4-(Diethylamino)phenyl)-4-morpholinothieno[3,2-d]pyrimidin-6-yl)methyl)(methyl)amino)-N-hydroxypyrimidine-5-carboxamide] | < 100 | 192 to 196 °C
